Experimental data taken from patent EP0618222A2, “Dipeptid derivatives of 5-amino-4-hydroxy-hexanoic acid” (CIBA-GEIGY AG, priority 1993, dated 1994).

Legend:
[1] = Blood level in mice after administration (HPLC of blood/plasma); format: in vivo, Mäuse; conditions: po; mouse blood, peroral 120 mg/kg, 30 min after administration; read-out: Konzentration
Experimental: Die pharmakodynamischen Eigenschaften der Verbindungen der Formel können beispielsweise wie folgt belegt werden: • Die zu untersuchenden Verbindungen der Formel oder (beispielsweise als Kontrolle) die entsprechende Verbindung der Formel werden in einem organischen Lösungsmittel, wie Dimethylsulfoxid (DMSO), in einer Konzentration von 240 mg/ml gelöst. Die resultierenden Lösungen werden mit 20% (w/v) Hydroxypropyl-ßcyclodextrin (HPßCD) verdünnt, um eine Konzentration der Testsubstanz von 12 mg/ml zu erhalten. Diese Lösung wird Mäusen oral durch künstliche Sonderernährung in einer Dosis von 120 mg/kg verabreicht. 30, 60, 90 und 120 min nach der Verabreichung werden die Tiere getötet und Blut entnommen. Pro Zeitpunkt werden drei bis vier Tiere untersucht. Das Blut wird heparinisiert und für die Analyse durch eine der folgenden beiden Methoden vorbereitet: Nach der ersten Methode wird Vollblut deproteinisiert durch Mischen eines Volumenteils Blut mit einem Volumenteil Acetonitril; nach Zentrifugation (10 000 g, 5 min) wird der Überstand durch Reversed-Phase-HPLC untersucht. Nach der zweiten Methode werden 2 µl einer 1 mM Lösung eines internen Standards (wie einer anderen Verbindung der Formel I) zu 0,5 ml heparinisiertem Blut zugegeben. Das Blut wird zentrifugiert (10 000 g, 5 min), und das Plasma mit demselben Volumen Acetonitril vermischt. […]

[2] = tested on: HIV-1; experiment: Protection of MT-2 cells against HIV-1 infection (reverse transcriptase activity in supernatant); format: cell-based; conditions: Human immunodeficiency virus 1, MT2, 96 h; lowest concentration lowering RT activity by 90 %; MT-2 cells with HIV-1, 4 days incubation; read-out: ED90 (the source's name)
From the text: In einem weiteren Test kann gezeigt werden, dass die Verbindungen der vorliegenden Erfindung Zellen, die normalerweise von HIV infiziert werden, vor einer solchen Infektion schützen oder zumindest eine solche Infektion verlangsamen. Dabei wird die menschliche T-Zell-Leukämie Zellinie MT-2 (Science 229, 563 (1985)), die empfindlich gegen den zytopathogenen Effekt von HIV ist, mit HIV-1 allein oder mit HIV-1 in Gegenwart einer der erfindungsgemässen Verbindungen inkubiert und nach einigen Tagen die Lebensfähigkeit der so behandelten Zellen beurteilt. Hierzu werden die MT-2-Zellen in RPMI 1640-Medium (Gibco, Schweiz; RPMI 1640 enthält ein Aminosäurengemisch ohne L-Gln), das mit 10% hitzeinaktiviertem fetalem Kälberserum, L-Glutamin, Hepes (2-[4-(2-Hydroxyethyl)-1-piperazino]-ethansulfonsäure) und Standardantibiotika supplementiert ist, bei 37 °C in befeuchteter Luft mit 5% CO2 gehalten. 50 µl der jeweiligen Testverbindung in Kulturmedium und 100 µl HIV-1 in Kulturmedium (800 TCID50/ml) (TCID50 = Tissue Culture Infectious Dose 50 = Dosis, die 50% der MT-2-Zellen infiziert) werden zu 4x1 0^3 exponentiell wachsenden MT-2-Zellen in 50 µl Kulturmedium pro Vertiefung auf 96-Loch-Mikrotiterplatten gegeben. Parallele Ansätze auf einerweiteren Mikrotiterplatte mit Zellen und Testverbindung erhalten 100 µl Kulturmedium ohne Virus. […]

COc1ccc(C[C@H](C[C@H](O)[C@H](Cc2ccccc2)NC(=O)OC(C)(C)C)C(=O)N[C@H](C(=O)N[C@@H](Cc2ccccc2)C(=O)N2CCOCC2)C(C)C)cc1 [5(S)-(tert-Butoxycarbonylamino)-4(S)-hydroxy-2(R)-(p-methoxy-phenylmethyl)-6-phenyl-hexanoyl-(L)-valyl-(L)-phenyl-alanyl-morpholin-4-ylamid]
concentration at 0.5 h [1]: 10.8 µM | EC90 [2]: 0.1 µM
